Assay results reported in PubChem BioAssay AID248 (DTP/NCI, 2004).
“And” between values parts separate entries of the source, which are not always exact repeats. Identical values can stand only once. Toxic doses and inconclusive results are not listed. Cut-off read from the data, not from the text of the source: active = T/C of 150% or more; inactive = T/C below 125%.

System: L1210 leukemia ip in BDF1 mice, survival T/C
Assay: NCI In Vivo Anticancer Drug Screen. Data for tumor model L1210 Leukemia (intraperitoneal) in B6D2F1 (BDF1) mice
Settings: endpoint: mean survival time, higher = longer survival
Outline: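 In this screen, tumor-bearing mice given compound are compared to those given vehicle, and their survival values are reported as a treated-to-control quotient.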

[1] = dose: 100.0 mg/kg/injection, schedule: Q01DX001 (ip), vehicle: carboxymethylcellulose (CMC)
[2] = dose: 200.0 mg/kg/injection, schedule: Q01DX001 (ip), vehicle: carboxymethylcellulose (CMC)
[3] = dose: 400.0 mg/kg/injection, schedule: Q01DX001 (ip), vehicle: carboxymethylcellulose (CMC)
[4] = dose: 100.0 mg/kg/injection, schedule: Q01DX001 (ip), vehicle: saline
[5] = dose: 200.0 mg/kg/injection, schedule: Q01DX001 (ip), vehicle: saline
[6] = dose: 400.0 mg/kg/injection, schedule: Q01DX001 (ip), vehicle: saline
[7] = dose: 100.0 mg/kg/injection, schedule: Q01DX009 (ip), vehicle: saline
[8] = dose: 200.0 mg/kg/injection, schedule: Q01DX009 (ip), vehicle: saline

Measured: T/C

O/N=C/c1ccc2ccccc2n1
inactive: dose: 18.75 mg/kg/injection, schedule: Q01DX009 (ip), vehicle: Klucel (hydroxypropylcellulose) (HPC) 105 % of control | dose: 18.75 mg/kg/injection, schedule: Q04DX003 (ip), vehicle: Klucel (hydroxypropylcellulose) (HPC) 97 % of control | dose: 37.5 mg/kg/injection, schedule: Q01DX009 (ip), vehicle: Klucel (hydroxypropylcellulose) (HPC) 100 % of control | dose: 37.5 mg/kg/injection, schedule: Q04DX003 (ip), vehicle: Klucel (hydroxypropylcellulose) (HPC) 103 % of control | dose: 75.0 mg/kg/injection, schedule: Q01DX009 (ip), vehicle: Klucel (hydroxypropylcellulose) (HPC) 113 % of control | dose: 75.0 mg/kg/injection, schedule: Q04DX003 (ip), vehicle: Klucel (hydroxypropylcellulose) (HPC) 97 % of control and 103 % of control

O=C(O)CCSc1ccccc1
inactive: dose: 40.0 mg/kg/injection, schedule: Q01DX009 (ip), vehicle: saline with Tween-80 96 % of control | dose: 75.0 mg/kg/injection, schedule: Q01DX009 (ip), vehicle: saline with Tween-80 88 % of control | dose: 75.0 mg/kg/injection, schedule: Q04DX003 (ip), vehicle: saline 96 % of control | dose: 150.0 mg/kg/injection, schedule: Q01DX009 (ip), vehicle: saline with Tween-80 101 % of control

CC(=O)Nc1c(Br)cc2c(c1Br)C(=O)c1ccccc1-2
inactive: [1] 97 % of control | [2] 87 % of control | [3] 97 % of control

N/C(=N\O)c1c(Br)n(C2OC(CO)C(O)C2O)c2ncnc(N)c12 (stereo not given)
inactive: [4] 98 % of control | [5] 97 % of control | [6] 106 % of control

O=C(CCCCCCC(=O)C[n+]1ccccc1Br)C[n+]1ccccc1Br
inactive: dose: 1.4 mg/kg/injection, schedule: Q04DX003 (ip), vehicle: saline 105 % of control | dose: 2.8 mg/kg/injection, schedule: Q04DX003 (ip), vehicle: saline 100 % of control | dose: 5.6 mg/kg/injection, schedule: Q04DX003 (ip), vehicle: saline 97 % of control

COC(=O)c1ccc(F)cc1
inactive: dose: 50.0 mg/kg/injection, schedule: Q01DX001 (ip), vehicle: carboxymethylcellulose (CMC) 92 % of control | [1] 97 % of control | [2] 97 % of control | [3] 95 % of control

C[N+]1(CCl)CCOCC1
inactive: dose: 1.74 mg/kg/injection, schedule: Q01DX009 (ip), vehicle: saline 104 % of control | dose: 2.6 mg/kg/injection, schedule: Q01DX009 (ip), vehicle: saline 104 % of control | dose: 4.0 mg/kg/injection, schedule: Q01DX001 (ip), vehicle: saline 105 % of control | dose: 4.0 mg/kg/injection, schedule: Q01DX009 (ip), vehicle: saline 94 % of control | dose: 4.0 mg/kg/injection, schedule: Q04DX003 (ip), vehicle: saline 100 % of control | dose: 4.0 mg/kg/injection, schedule: Q08DX002 (ip), vehicle: saline 105 % of control | dose: 6.0 mg/kg/injection, schedule: Q01DX001 (ip), vehicle: saline 102 % of control | dose: 6.0 mg/kg/injection, schedule: Q01DX009 (ip), vehicle: saline 102 % of control | dose: 6.0 mg/kg/injection, schedule: Q04DX003 (ip), vehicle: saline 98 % of control | dose: 6.0 mg/kg/injection, schedule: Q08DX002 (ip), vehicle: saline 111 % of control | dose: 9.0 mg/kg/injection, schedule: Q01DX009 (ip), vehicle: saline 100 % of control | dose: 10.0 mg/kg/injection, schedule: Q01DX001 (ip), vehicle: saline 102 % of control | dose: 10.0 mg/kg/injection, schedule: Q04DX003 (ip), vehicle: saline 105 % of control | dose: 10.0 mg/kg/injection, schedule: Q08DX002 (ip), vehicle: saline 104 % of control | dose: 14.0 mg/kg/injection, schedule: Q01DX001 (ip), vehicle: saline 104 % of control | dose: 14.0 mg/kg/injection, schedule: Q04DX003 (ip), vehicle: saline 102 % of control | dose: 14.0 mg/kg/injection, schedule: Q08DX002 (ip), vehicle: saline 107 % of control | dose: 21.0 mg/kg/injection, schedule: Q01DX001 (ip), vehicle: saline 102 % of control | dose: 21.0 mg/kg/injection, schedule: Q04DX003 (ip), vehicle: saline 100 % of control | dose: 21.0 mg/kg/injection, schedule: Q08DX002 (ip), vehicle: saline 100 % of control | dose: 75.0 mg/kg/injection, schedule: Q01DX001 (ip), vehicle: saline 98 % of control | dose: 150.0 mg/kg/injection, schedule: Q01DX001 (ip), vehicle: saline 107 % of control

CN1CCN(C(=O)C2C(c3ccccc3)C2c2cccc(C(F)(F)F)c2)CC1 (stereo not given)
inactive: dose: 100.0 mg/kg/injection, schedule: Q04DX002 (ip), vehicle: saline with Tween-80 103 % of control | dose: 200.0 mg/kg/injection, schedule: Q04DX002 (ip), vehicle: saline with Tween-80 98 % of control | dose: 400.0 mg/kg/injection, schedule: Q04DX002 (ip), vehicle: saline with Tween-80 92 % of control

O=C(O)CC(C(=O)O)=C1CCCCC1
inactive: dose: 50.0 mg/kg/injection, schedule: Q01DX009 (ip), vehicle: saline 98 % of control | [7] 98 % of control | [8] 100 % of control

O=C(O)Cc1sc(=O)[nH]c1O
inactive: [7] 96 % of control | dose: 100.0 mg/kg/injection, schedule: Q04DX003 (ip), vehicle: saline 102 % of control | [8] 96 % of control | dose: 200.0 mg/kg/injection, schedule: Q04DX003 (ip), vehicle: saline 96 % of control | dose: 400.0 mg/kg/injection, schedule: Q01DX009 (ip), vehicle: saline 99 % of control | dose: 400.0 mg/kg/injection, schedule: Q04DX003 (ip), vehicle: saline 106 % of control

O=C1CCCCc2nn(c3ccccc23)C(=O)CCCCc2nn1c1ccccc21
inactive: dose: 25.0 mg/kg/injection, schedule: Q04DX002 (ip), vehicle: Klucel (hydroxypropylcellulose) (HPC) 90 % of control | dose: 50.0 mg/kg/injection, schedule: Q04DX002 (ip), vehicle: Klucel (hydroxypropylcellulose) (HPC) 97 % of control | dose: 100.0 mg/kg/injection, schedule: Q04DX002 (ip), vehicle: Klucel (hydroxypropylcellulose) (HPC) 93 % of control

CCOC(=O)C1=NN(c2ccccc2)C(=O)C1N=Nc1ccc(S(=O)(=O)Nc2nnc(C)s2)cc1 (stereo not given)
inactive: [4] 110 % of control | [5] 105 % of control | [6] 98 % of control

Cc1c([N+](=O)[O-])cc(C(C)(C)C)c(OC(=O)Nc2ccc(Cl)cc2)c1[N+](=O)[O-]
inactive: dose: 100.0 mg/kg/injection, schedule: Q04DX003 (ip), vehicle: Klucel (hydroxypropylcellulose) (HPC) 95 % of control | dose: 200.0 mg/kg/injection, schedule: Q04DX003 (ip), vehicle: Klucel (hydroxypropylcellulose) (HPC) 92 % of control
